The text below walks through data of patent US20150299233A1, “COMPOSITIONS AND METHODS COMPRISING RHENIUM FOR THE TREATMENT OF CANCERS” (Massachusetts Institute of Technology, priority 2014, published 2015).

Data set [1] concerns MDA-MB-231 (breast adenocarcinoma). In words: MTT cytotoxicity assay, MDA-MB-231 cells. The class given is cell-based, human. The note with it: Table 2; cisplatin-resistant cell line; 72 h exposure; read-out: IC50 MDA-M8-231 breast adenocarcinoma.
In data set [2] the test system is A549 cells. As to the kind of experiment: MTT cytotoxicity assay, A549 cells. In kind it is cell-based, human. (In general: Tetrazolium dyes change colour on reduction, which living cells bring about.)
Method: In vitro toxicity of the rhenium (v) oxo complexes, 1 and 2 towards a panel of human cell lines was determined using the colorimetic MTT [[3-(4,5-dimethylithiazol-2-yl)-2,5-diphenyltetrazolium bromide] assay.
The in vitro effect of rhenium(V) oxo complexes 1 and 2 toward a panel of human cell lines was determined by the colorimetric MTT [3-(4,5-dimethylthiazol-2-yl)-2,5-diphenyltetrazolium bromide] assay. […] The IC50 values, or concentration required to induce 50% cell death, were derived from dose—response curves and are summarized in Table 1.
Cells (2×10^3 cells/well) were seeded in a 96-well plate. […] 1 and 2 were prepared as 10 mM solutions in DMSO and diluted using media. The final concentration of DMSO in each well was 0.5%, and this amount was also present in the untreated control. After 72 h, the medium was removed, 200 μL of a 0.4 mg/mL solution of MTT in DMEM, RPMI, or McCoy's 5A was added, and the plate was incubated for an additional 1-2 h. The DMEM/MTT, RPMI/MTT, or McCoy's 5A/MTT mixture was aspirated, and 200 μL of DMSO was added to dissolve the resulting purple formazan crystals. The absorbance of the solution wells was read at 550 nm. Absorbance values were normalized to DMSO-containing control wells and plotted as the concentration of test compound versus % cell viability. IC50 values were interpolated from the resulting dose-dependent curves. The reported IC50 values are the average from at least three independent experiments, each of which consisted of six replicates per concentration level.
The nature of data set [3]: Stability in whole human blood (octanol extraction, GFAAS). In kind it is in vitro ADME. The note with it: 500 μM, fresh human blood, 37° C. On the procedure: The stability of biologically active compounds in human blood is vitally important for their potential application in clinical settings. The stability of 1 in whole human blood using a recently developed protocol was investigated. The method exploits the ability of octanol to extract hydrophobic metal complexes such as 1. The rhenium complex 1 (500 μM) was incubated with fresh human blood at 37° C., and aliquots were extracted into octanol at various time points. The amount of 1 in the octanol extracts (corresponding to unreacted 1) was measured by graphite furnace atomic absorption spectroscopy (GFAAS).

A further data set concerns NTERA-2. In words: MTT cytotoxicity assay, NTERA-2 cells. The class given is cell-based, human. The note with it: Table 1; 72 h exposure; ± standard deviation; read-out: IC50 NTERA-2 testis carcinoma.
A short description of data set [4]: Variable-temperature 1H NMR stability in DMSO. The note with it: intact up to 75° C. In kind it is physicochemical. On the procedure: Two rhenium(v) oxo complexes (1 and 2; see Scheme 1) were prepared by reacting ReOCI3)2 with […] of the corresponding bidentate ligand in methanol. The complexes were isolated in reasonable yields as pale green solids and fully characterized by NMR and IR spectroscopy, ESI-MS spectrometry, and elemental analysis.
Synthesis and Characterization. The rhenium(V) oxo complexes 1 and 2 (see Scheme 1) were prepared by the reaction of [ReOCl3(PPh3)2] with 1.5 equiv of the corresponding bidentate ligand in methanol (Scheme 1). The complexes were isolated in reasonable yields as pale green solids and fully characterized by NMR and IR spectroscopy and ESI mass spectrometry. The purity of the complexes was confirmed by elemental analysis.

Another data set deals with C57BL/6 mice. As to the kind of experiment: In vivo acute toxicity in mice. The note with it: single i.p. doses 3-36 mg/kg in saline, monitored 6 days. The procedure: In Vivo Toxicity and Stability in Whole Human Blood. Given the impressive in vitro data acquired for 1 and 2, an in vivo study was conducted with C57BL/6 mice to determine acute toxicity and possible side effects. Single doses of 1 and 2 (3, 7, 11,15, 20, and 36 mg/kg) in saline were administered by intraperitoneal injection. The mice were then monitored for signs of pain, distress, and weight loss for 6 days post-treatment. […] The pharmacological toxicity profile of 1 and 2 is very appealing in terms of further preclinical studies.

Data set [5] deals with A549 cells. In words: Cell cycle analysis, DNA-flow cytometry. The class given is cell-based, human. The note with it: 2 μM. The procedure: Cell Cycle Analysis. To gain a more complete understanding of the cellular response evoked, DNA-flow cytometric studies were conducted to determine the effect of 1 and 2 on the cell cycle. A549 cells were treated with 1 or 2 (2 μM), and the cell cycle was determined over the course of 72 h. […] Upon further incubation (72 h), large populations of cell debris were detected (32%), indicative of cell death. […] G1-phase cell cycle arrest followed by immediate cell death is characteristic of programmed necrosis.
Cell Cycle. In order to monitor the cell cycle, flow cytometry studies were carried out. A549 cells (1.5×10^6 cells/well) grown in six-well plates were incubated with and without the test compounds for 24, 48, and 72 h at 37° C. Cells were harvested from adherent cultures by trypsinization and combined with all detached cells from the incubation medium to assess total cell viability. Following centrifugation at 1000 rpm for 5 min, cells were washed with PBS and then fixed with 70% ethanol in PBS. Fixed cells were collected by centrifugation at 2500 rpm for 3 min, washed with PBS, and centrifuged as before. Cellular pellets were resuspended in 50 μg/mL PI (Sigma) in PBS for nucleic acids staining and treated with 100 µg/mL RNaseA (Sigma). DNA content was measured on a FACSCalibur-HTS flow cytometer (BD Biosciences) using laser excitation at 488 nm, and 20 000 events per sample were acquired. Cell cycle profiles were analyzed using the ModFit software.
On the technique in general: Flow cytometry measures light scatter and fluorescence of single cells or particles in a stream.

The subject of data set [6] is HT-29 (colorectal adenocarcinoma). In words: MTT cytotoxicity assay, HT-29 cells. The class given is cell-based, human. The note with it: for IC50: Table 2, cisplatin-resistant cell line, 72 h exposure; for IC50 lower in HT-29 cells than IC50 of cisplatin: ratio to cisplatin.
Method: Cytotoxicity MTT Assay. […] Cells (2×10^3 cells/well) were seeded in a 96-well plate. […] The final concentration of DMSO in each well was 0.5%, and this amount was also present in the untreated control. After 72 h, the medium was removed, 200 μL of a 0.4 mg/mL solution of MTT in DMEM, RPMI, or McCoy's 5A was added, and the plate was incubated for an additional 1-2 h. The DMEM/MTT, RPMI/MTT, or McCoy's 5A/MTT mixture was aspirated, and 200 μL of DMSO was added to dissolve the resulting purple formazan crystals. The absorbance of the solution wells was read at 550 nm. Absorbance values were normalized to DMSO-containing control wells and plotted as the concentration of test compound versus % cell viability. IC50 values were interpolated from the resulting dose-dependent curves. The reported IC50 values are the average from at least three independent experiments, each of which consisted of six replicates per concentration level.
Data set [7] concerns HCT116 p53+/+ and HCT116 p53−/− cells. As to the kind of experiment: Cytotoxicity in HCT116 p53+/+ versus p53-/- cells. In kind it is cell-based. The note with it: 72 h, FIG. 3B. The procedure: (PARP-1). PARP-1 is a nuclear enzyme that is involved in DNA repair and transcriptional regulation. DNA damage can trigger PARP-1 activity, resulting in ATP and NAD depletion and bioenergetics- mediated cell death. To determine whether PARP-1 activity is a factor in 1- and 2-mediated cell death, cytotoxicity assays were conducted with wild-type mouse embryonic fibroblast cells (MEFs PARP-1+/+) and the corresponding PARP-1-null cells (MEFs PARP-1−/−). […] Recently, p53 has also been reported to play a role in necroptosis. p53 induces cathepsin Q, a lysosomal protease that cooperates with ROS to execute necrosis. To investigate whether p53 might play a role in 1- and 2-mediated necroptosis, cytotoxicity studies were conducted with HCT116 p53^+/+ nd HCT116 p53^−/− cells.
Cell Cycle Analysis. To gain a more complete understanding of the cellular response evoked, DNA-flow cytometric studies were conducted to determine the effect of 1 and 2 on the cell cycle. A549 cells were treated with 1 or 2 (2 μM), and the cell cycle was determined over the course of 72 h. […] Upon further incubation (72 h), large populations of cell debris were detected (32%), indicative of cell death. […]
Cytotoxicity MTT Assay. […] The absorbance of the solution wells was read at 550 nm. Absorbance values were normalized to DMSO-containing control wells and plotted as the concentration of test compound versus % cell viability. […]

Data set [8] concerns cisplatin-resistant ovarian carcinoma cells (A2780CP70). As to the kind of experiment: MTT cytotoxicity assay, A2780CP70 cells. In kind it is cell-based, human.
[9] abbreviates: Table 1, 72 h exposure, ± standard deviation, read-out: IC50 A549 lung carcinoma.
[10] abbreviates: Table A, average of three independent determinations, read-out: IC50 A549 (lung).
Setting [11] is: Table 1, 72 h exposure, ± standard deviation, read-out: IC50 A2780CP70 ovarian carcinoma.
The mark [12] stands for this setting: Table A, average of three independent determinations, read-out: IC50 A280CP70 (ovarian).

Where two headings read alike, the source gives them in different places.

Consider `C[O][Re](=[O])([Cl])[Cl].c1ccc(-c2ccnc3c2ccc2c(-c4ccccc4)ccnc23)cc1` [Compound 1, [ReO(OMe)(4,7-diphenyl-1,10-phenanthroline)-Cl2]], for which the IC50 (in general, the concentration that inhibits the measured activity by half) came to 475 ± 161 nM in [1]; 207 ± 4 nM in the data set with A549 cells [2] (setting [9]); 207 ± 4 nM in the data set on A549 cells [2] (setting [10]); 230 ± 28 nM in the data set with NTERA-2; 85 ± 11 nM in [6]; 42 ± 15 nM in [8] (setting [11]). Further, the IC50 in [8] (setting [12]) is 42 ± 15 nM. Further, the “higher toxicity for lung carcinoma A549 cells than cisplatin” value with A549 cells [2] (ratio to cisplatin, Example 1) stood at 37 fold. Besides, in data set [3], the “half-life in human blood” value worked out at 29.1 min. In addition, the “stability in DMSO” value in data set [4] was “stable”. In addition, the “acute toxicity in mice, gauged by weight loss” value in the data set on C57BL/6 mice is on record as “no toxicity”. For the same molecule, the “effect on cell cycle after 24 h” value in the data set on A549 cells [5] is reported as “stalled the cell cycle at the G1 phase”. In addition, the “effect on cell cycle after 48 h” value in the data set with A549 cells [5] (48 h) is on record as “remained stalled at the G1 phase”. In the data set on A549 cells [5], the “population of cell debris, 72 h” value was found to be 32%. Also, the “IC50 lower in HT-29 cells than IC50 of cisplatin” value in data set [6] amounted to 300 fold. Moreover, the “potency in HCT116 p53+/+ compared with HCT116 p53−/−” value in [7] was “statistically similar”.
As for `C[O][Re-2]1(=[O])([Cl])([Cl])[n+]2cc(C)c(C)c3ccc4c(C)c(C)c[n+]1c4c32` [Compound 2, [ReO(OMe)(3,4,7,8-tetramethyl-1,10-phenanthroline)Cl2]], the IC50 was 1740 ± 275 nM in data set [1]; 157 ± 15 nM with A549 cells [2] (setting [9]); 73 ± 3 nM in the data set with A549 cells [2] (setting [10]); 255 ± 35 nM with NTERA-2; 95 ± 20 nM in data set [6]; 56 ± 2 nM in data set [8] (setting [11]). For the same molecule, the IC50 in [8] (setting [12]) was determined as 56 ± 2 nM. For the same molecule, the “stability in DMSO” value in data set [4] is on record as “stable”. Moreover, in the data set with C57BL/6 mice, the “acute toxicity in mice, gauged by weight loss” value is listed as “no toxicity”. Besides, the “effect on cell cycle after 24 h” value in the data set with A549 cells [5] was “stalled the cell cycle at the G1 phase”. Also, in the data set on A549 cells [5] (48 h), the “population of cell debris, 48 h” value is 26%. Also, the “population of cell debris, 72 h” value with A549 cells [5] amounted to 38%. Moreover, in data set [6], the “IC50 lower in HT-29 cells than IC50 of cisplatin” value is 300 fold. Further, the “potency in HCT116 p53+/+ compared with HCT116 p53−/−” value in data set [7] is listed as “statistically similar”.
